Assay results as given in PubChem BioAssay (NCI).
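Results reflect a 48-hour exposure of cells in 96-well plates to compound at five concentrations. TGI: total growth inhibition.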

Key:
Assay in all cases: DTP human tumour cell line panel, 48 h
HCC-2998 colon = tested on: HCC-2998 colon
786-0 renal = tested on: 786-0 renal
SNB-19 CNS = tested on: SNB-19 CNS
EKVX NSCLC = tested on: EKVX NSCLC
RXF 393 renal = tested on: RXF 393 renal
A549 NSCLC = tested on: A549 NSCLC
UACC-62 melanoma = tested on: UACC-62 melanoma
LOX IMVI melanoma = tested on: LOX IMVI melanoma
MCF7 breast = tested on: MCF7 breast
OVCAR-5 ovarian = tested on: OVCAR-5 ovarian
SK-MEL-28 melanoma = tested on: SK-MEL-28 melanoma
DU-145 prostate = tested on: DU-145 prostate
IGROV1 ovarian = tested on: IGROV1 ovarian
CCRF-CEM leukemia = tested on: CCRF-CEM leukemia
MALME-3M melanoma = tested on: MALME-3M melanoma
SF-539 CNS = tested on: SF-539 CNS
M14 melanoma = tested on: M14 melanoma
K-562 leukemia = tested on: K-562 leukemia
CAKI-1 renal = tested on: CAKI-1 renal
COLO 205 colon = tested on: COLO 205 colon
NCI/ADR-RES ovarian = tested on: NCI/ADR-RES ovarian
MOLT-4 leukemia = tested on: MOLT-4 leukemia
SF-295 CNS = tested on: SF-295 CNS
SR leukemia = tested on: SR leukemia
BT-549 breast = tested on: BT-549 breast
UO-31 renal = tested on: UO-31 renal
PC-3 prostate = tested on: PC-3 prostate
SK-MEL-2 melanoma = tested on: SK-MEL-2 melanoma
MDA-MB-435 = tested on: MDA-MB-435
ACHN renal = tested on: ACHN renal
NCI-H460 lung = tested on: NCI-H460 lung
SF-268 CNS = tested on: SF-268 CNS
HS 578T breast = tested on: HS 578T breast
SK-MEL-5 melanoma = tested on: SK-MEL-5 melanoma
T-47D breast = tested on: T-47D breast
MDA-MB-231 breast = tested on: MDA-MB-231 breast
HL-60(TB) leukemia = tested on: HL-60(TB) leukemia
A498 renal = tested on: A498 renal
HCT-116 colon = tested on: HCT-116 colon
UACC-257 melanoma = tested on: UACC-257 melanoma
U251 CNS = tested on: U251 CNS
RPMI-8226 leukemia = tested on: RPMI-8226 leukemia
HOP-62 NSCLC = tested on: HOP-62 NSCLC
OVCAR-8 ovarian = tested on: OVCAR-8 ovarian
SN12C renal = tested on: SN12C renal
TK-10 renal = tested on: TK-10 renal
OVCAR-3 ovarian = tested on: OVCAR-3 ovarian
HOP-92 NSCLC = tested on: HOP-92 NSCLC
HT29 colon = tested on: HT29 colon
NCI-H23 lung = tested on: NCI-H23 lung
NCI-H226 lung = tested on: NCI-H226 lung
SNB-75 CNS = tested on: SNB-75 CNS
HCT-15 colon = tested on: HCT-15 colon
NCI-H522 lung = tested on: NCI-H522 lung
OVCAR-4 ovarian = tested on: OVCAR-4 ovarian
SW-620 colon = tested on: SW-620 colon
MDA-N = tested on: MDA-N
KM12 colon = tested on: KM12 colon

O=C(N/N=C\c1cccc2c([N+](=O)[O-])cccc12)Nc1ccccc1
TGI (HCC-2998 colon): 32 µM
TGI (786-0 renal): 35.1 µM
TGI (SNB-19 CNS): 36.5 µM
TGI (EKVX NSCLC): 35.1 µM
TGI (RXF 393 renal): 26.3 µM
TGI (A549 NSCLC): 28.3 µM
TGI (UACC-62 melanoma): 24.4 µM
TGI (LOX IMVI melanoma): 25.4 µM
TGI (MCF7 breast): 26.7 µM
TGI (OVCAR-5 ovarian): 30.5 µM
TGI (SK-MEL-28 melanoma): 31.9 µM
TGI (DU-145 prostate): 66.1 µM
TGI (IGROV1 ovarian): 40.1 µM
TGI (CCRF-CEM leukemia): 33.9 µM
TGI (MALME-3M melanoma): 38 µM
TGI (SF-539 CNS): 27.3 µM
TGI (M14 melanoma): 29.5 µM
TGI (K-562 leukemia): 43.5 µM
TGI (CAKI-1 renal): 25.5 µM
TGI (COLO 205 colon): 50.7 µM
TGI (NCI/ADR-RES ovarian): 32.3 µM
TGI (MOLT-4 leukemia): 41.7 µM
TGI (SF-295 CNS): 32.5 µM
TGI (SR leukemia): 43.3 µM
TGI (BT-549 breast): 29.3 µM
TGI (UO-31 renal): 26.4 µM
TGI (PC-3 prostate): 32.7 µM
TGI (SK-MEL-2 melanoma): 18.2 µM
TGI (MDA-MB-435): 25 µM
TGI (ACHN renal): 27.3 µM
TGI (NCI-H460 lung): 30.9 µM
TGI (SF-268 CNS): 73 µM
TGI (HS 578T breast): 33.5 µM
TGI (SK-MEL-5 melanoma): 33.5 µM
TGI (T-47D breast): 20.4 µM
TGI (MDA-MB-231 breast): 49.4 µM
TGI (HL-60(TB) leukemia): 72.6 µM
TGI (A498 renal): 33.4 µM
TGI (HCT-116 colon): 16.1 µM
TGI (UACC-257 melanoma): 44.4 µM
TGI (U251 CNS): 24 µM
TGI (RPMI-8226 leukemia): 44 µM
TGI (HOP-62 NSCLC): 36 µM
TGI (OVCAR-8 ovarian): 36.8 µM
TGI (SN12C renal): 18.9 µM
TGI (TK-10 renal): 27.3 µM
TGI (OVCAR-3 ovarian): 29.4 µM
TGI (HOP-92 NSCLC): 30.4 µM
TGI (HT29 colon): 34.7 µM
TGI (NCI-H23 lung): 35.2 µM
TGI (NCI-H226 lung): 31.2 µM
TGI (SNB-75 CNS): > 100 µM
TGI (HCT-15 colon): 25.5 µM
TGI (NCI-H522 lung): 38.4 µM
TGI (OVCAR-4 ovarian): 29.2 µM
TGI (SW-620 colon): 35.8 µM
TGI (MDA-N): 32.8 µM
TGI (KM12 colon): 36.1 µM
